This passage reports EC50 results from patent publication US10138255B2, “Piperazine derivatives as HIV protease inhibitors” (Merck Sharp & Dohme Corp., priority 2014, dated 2018).

SMILES strings stand for the structures.

In this assay the test system is HIV-1 (H9IIIB strain). In words: Cell-Based HIV Infection Assay Using a Reporter (MT4-GFP cells). The following applies: Human immunodeficiency virus 1, inflection point (IP) of viral growth inhibition; MT4-GFP cells infected with HIV-1 H9IIIB; 50% normal human serum; mean of at least two independent experiments; read-out: Cell Based IP (50% NHS). The method in brief:
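MT4-GFP cells (HIV LTR-driven GFP) bulk-infected with HIV-1 H9IIIB at low MOI for 24 h, washed, then exposed to compounds in RPMI plus 50% normal human serum, 0.4% DMSO. Infected cells counted at 24 and 48 h; R0 = 48 h/24 h ratio, inhibition normalised to DMSO and triple-drug control; IP from 4-parameter fit.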
For the compound `CC1(C)CC([C@H](c2ccc(Cl)cc2)[C@H](NCCOCc2ccccc2)C(=O)N[C@H]2CCC[C@@H]2CC[C@H]2CN[C@@H]3CCCS(=O)(=O)N2C3)CCO1` (stereo partly drawn) [Example 230, (βR)-Nα-[2-(benzyloxy)ethyl]-4-chloro-β-(2,2-dimethyltetrahydro-2H-pyran-4-yl)-N-[(1S,2R)-2-{2-[(6R,9S)-2,2-dioxido-2-thia-1,7-diazabicyclo[4.3.1]dec-9-yl]ethyl}cyclopentyl]-L-phenylalaninamide], the EC50 was determined as 310 nM.
As for `COC(=O)N[C@H](C(=O)Nc1cncc(F)c1CC[C@H]1CN[C@@H]2CCCS(=O)(=O)N1C2)[C@@H](c1ccc(Cl)cc1)[C@H]1CC[C@H](C(F)(F)F)CC1` [Example 256, methyl {(1S,2R)-2-(4-chlorophenyl)-1-[(4-{2-[(6R,9S)-2,2-dioxido-2-thia-1,7-diazabicyclo[4.3.1]dec-9-yl]ethyl}-5-fluoropyridin-3-yl)carbamoyl]-2-[(1r,4R)-4-(trifluoromethyl)cyclohexyl]ethyl}carbamate], the figure is 8.2 nM; as for `Cn1nc([C@H](c2ccc(Cl)c(F)c2)[C@H](N)C(=O)Nc2cncc(F)c2CC[C@H]2CN[C@@H]3CCCS(=O)(=O)N2C3)cc1C(F)(F)F` [Example 266, (βR)-4-chloro-N-(4-{2-[(6R,9S)-2,2-dioxido-2-thia-1,7-diazabicyclo[4.3.1]dec-9-yl]ethyl}-5-fluoropyridin-3-yl)-3-fluoro-β-[1-methyl-5-(trifluoromethyl)-1H-pyrazol-3-yl]-L-phenylalaninamide], 11 nM; as for `N[C@H](C(=O)Nc1cccc(F)c1CC[C@H]1CN[C@@H]2CCCS(=O)(=O)N1C2)[C@@H](c1ccc(F)cc1)C1CCCOC1` (stereo partly drawn) [Example 214, (βR)-N-(2-{2-[(6R,9S)-2,2-dioxido-2-thia-1,7-diazabicyclo[4.3.1]dec-9-yl]ethyl}-3-fluorophenyl)-4-fluoro-β-(tetrahydro-2H-pyran-3-yl)-L-phenylalaninamide], 18 nM.
For `CC1(C)C[C@@H]([C@H](c2ccc(Cl)cc2)[C@H](N)C(=O)Nc2c(F)ccc(F)c2CC[C@H]2CN[C@@H]3CCCS(=O)(=O)N2C3)CCO1` [Example 194, (βR)-4-chloro-β-[(4S)-2,2-dimethyltetrahydro-2H-pyran-4-yl]-N-(2-{2-[(6R,9S)-2,2-dioxido-2-thia-1,7-diazabicyclo[4.3.1]dec-9-yl]ethyl}-3,6-difluorophenyl)-L-phenylalaninamide] the value was 19 nM; for `COC(=O)N[C@H](C(=O)Nc1cccc(F)c1CC[C@H]1CN[C@@H]2CCC(C)(C)S(=O)(=O)N1C2)[C@@H](c1ccc(F)cc1)[C@H]1C[C@@H](C)O[C@@H](C)C1` [Example 102, methyl {(1S)-2-[(2-{2-[(6R,9S)-3,3-dimethyl-2,2-dioxido-2-thia-1,7-diazabicyclo[4.3.1]dec-9-yl]ethyl}-3-fluorophenyl)amino]-1-[(R)-[(2R,4r,6S)-2,6-dimethyltetrahydro-2H-pyran-4-yl](4-fluorophenyl)methyl]-2-oxoethyl}carbamate], 32 nM; for `CO[C@H]1CC[C@](c2ccc(F)cc2)([C@H](N)C(=O)Nc2cncc(F)c2CC[C@H]2CN[C@@H]3CCCS(=O)(=O)N2C3)CC1` [Example 235, (2S)-2-amino-N-(4-{2-[(6R,9S)-2,2-dioxido-2-thia-1,7-diazabicyclo[4.3.1]dec-9-yl]ethyl}-5-fluoropyridin-3-yl)-2-[trans-1-(4-fluorophenyl)-4-methoxycyclohexyl]ethanamide], 67 nM.
For `N[C@H](C(=O)Nc1cccc(F)c1CCC1CNC2CCCS(=O)(=O)N1C2)[C@@H](c1ccc(F)cc1)c1ccc(C2CC2)cc1` (stereo partly drawn) [Example 59, (βR)-4-cyclopropyl-N-{2-[2-(2,2-dioxido-2-thia-1,7-diazabicyclo[4.3.1]dec-9-yl)ethyl]-3-fluorophenyl}-β-(4-fluorophenyl)-L-phenylalaninamide] the value was 16 nM; for `COC(=O)N[C@H](C(=O)Nc1c(F)ccc(F)c1CC[C@H]1CN[C@@H]2CCCS(=O)(=O)N1C2)[C@@H](c1ccc(F)cc1)[C@H]1C[C@@H](C)O[C@@H](C)C1` [Example 147, methyl [(1S,2R)-2-[(2R,4r,6S)-2,6-dimethyltetrahydro-2H-pyran-4-yl]-1-[(2-{2-[(6R,9S)-2,2-dioxido-2-thia-1,7-diazabicyclo[4.3.1]dec-9-yl]ethyl}-3,6-difluorophenyl)carbamoyl]-2-(4-fluorophenyl)ethyl]carbamate], 22 nM; for `CC1(C)C[C@H]([C@H](c2ccc(Cl)cc2)[C@H](N)C(=O)Nc2cccc(F)c2CC[C@H]2CN[C@@H]3CCS(=O)(=O)N2C3)CCO1` [Example 275, (2S,3R)-2-amino-3-(4-chlorophenyl)-3-((R)-2,2-dimethyltetrahydro-2H-pyran-4-yl)-N-(2-(2-((5R,8S)-2,2-dioxido-2-thia-1,6-diazabicyclo[3.3.1]nonan-8-yl)ethyl)-3-fluorophenyl)propanamide], 25 nM.
As to `N[C@H](C(=O)Nc1cccc(F)c1CCC1CNC2CCCS(=O)(=O)N1C2)[C@H](c1cncc(C(F)(F)F)c1)c1ccc(Cl)c(F)c1` (stereo partly drawn) [Example 227, (βS)-4-Chloro-N-{2-[2-(2,2-dioxido-2-thia-1,7-diazabicyclo[4.3.1]dec-9-yl)ethyl]-3-fluorophenyl}-3-fluoro-β-[5-(trifluoromethyl)pyridin-3-yl]-L-phenylalaninamide], the EC50 was 7.1 nM.
As for `COC(=O)N[C@H](C(=O)N[C@H]1CCC[C@@H]1CC[C@H]1CN[C@@H]2CCCS(=O)(=O)N1C2)[C@@H](c1ccc(Cl)cc1)C1CCOCC1` [Example 58, methyl [(1S,2R)-2-(4-chlorophenyl)-1-{[(1S,2R)-2-{2-[(6R,9S)-2,2-dioxido-2-thia-1,7-diazabicyclo[4.3.1]dec-9-yl]ethyl}cyclopentyl]carbamoyl}-2-(tetrahydro-2H-pyran-4-yl)ethyl]carbamate], the figure is 59 nM; as for `N[C@H](C(=O)Nc1cccc(F)c1CCC1CNC2CCCS(=O)(=O)N1C2)[C@@H](c1ccc(F)cc1)c1cc(F)cc(F)c1` (stereo partly drawn) [Example 1, (βS)—N-{2-[2-(2,2-Dioxido-2-thia-1,7-diazabicyclo[4.3.1]dec-9-yl)ethyl]-3-fluorophenyl}-3,5-difluoro-β-(4-fluorophenyl)-L-phenylalaninamide], 2.9 nM; as for `N[C@H](C(=O)Nc1cncc(F)c1CC[C@H]1CN[C@@H]2CCCS(=O)(=O)N1C2)[C@@H](c1ccc(Cl)cc1)C1CCC(F)(F)CC1` [Example 241, (2S,3R)-2-amino-3-(4-chlorophenyl)-3-(4,4-difluorocyclohexyl)-N-(4-(2-((6R,9S)-2,2-dioxido-2-thia-1,7-diazabicyclo[4.3.1]decan-9-yl)ethyl)-5-fluoropyridin-3-yl)propanamide], 7.3 nM.
`CC(F)(F)c1ccc([C@H](c2ccc(Cl)cc2)[C@H](N)C(=O)Nc2cccc(F)c2CC[C@H]2CN[C@@H]3CCCS(=O)(=O)N2C3)cn1` [Example 12, (2S,3S)-2-amino-3-(4-chlorophenyl)-3-(6-(1,1-difluoroethyl)pyridin-3-yl)-N-(2-(2-((6R,9S)-2,2-dioxido-2-thia-1,7-diazabicyclo[4.3.1]decan-9-yl)ethyl)-3-fluorophenyl)propanamide]: the EC50 was 5.9 nM.
`COC(=O)N[C@H](C(=O)Nc1cccc(F)c1OCC1CNC2CCCS(=O)(=O)N1C2)[C@@H](c1ccc(F)cc1)c1cc(F)cc(F)c1` (stereo partly drawn) [Example 85, methyl [(1S,2S)-2-(3,5-difluorophenyl)-1-({2-[(2,2-dioxido-2-thia-1,7-diazabicyclo[4.3.1]dec-9-yl)methoxy]-3-fluorophenyl}carbamoyl)-2-(4-fluorophenyl)ethyl]carbamate]: the EC50 worked out at 150 nM.
For `CC1CC[C@@H]2CN([C@@H](CCc3c(F)cccc3NC(=O)[C@@H](N)[C@@H](c3ccc(F)cc3)C3C[C@@H](C)O[C@@H](C)C3)CN2)S1(=O)=O` (stereo partly drawn) [Example 110, (βR)-β-[(2R,6S)-2,6-dimethyltetrahydro-2H-pyran-4-yl]-4-fluoro-N-(3-fluoro-2-{2-[(6R,9S)-3-methyl-2,2-dioxido-2-thia-1,7-diazabicyclo[4.3.1]dec-9-yl]ethyl}phenyl)-L-phenylalaninamide], the EC50 was 55 nM.
As for `COC(=O)N[C@H](C(=O)Nc1cccc(F)c1CCC1CNC2CCCS(=O)(=O)N1C2)[C@@H](c1ccc(F)cc1)c1ccc(C2CC2)cc1` (stereo partly drawn) [Example 60, methyl [(1S,2R)-2-(4-cyclopropylphenyl)-1-({2-[2-(2,2-dioxido-2-thia-1,7-diazabicyclo[4.3.1]dec-9-yl)ethyl]-3-fluorophenyl}carbamoyl)-2-(4-fluorophenyl)ethyl]carbamate], the figure is 9.9 nM; as for `COC(=O)N[C@@H](C(=O)N[C@H]1CCC[C@@H]1CC[C@H]1CN[C@@H]2CCCS(=O)(=O)N1C2)[C@@H](c1ccc(Cl)cc1)C1CCN(C(=O)OCc2ccccc2)CC1` [Example 137, benzyl 4-{(1R,2R)-1-(4-chlorophenyl)-3-{[(1S,2R)-2-{2-[(6R,9S)-2,2-dioxido-2-thia-1,7-diazabicyclo[4.3.1]dec-9-yl]ethyl}cyclopentyl]amino}-2-[(methoxycarbonyl)amino]-3-oxopropyl}piperidine-1-carboxylate], 1300 nM; as for `COC(=O)N[C@H](C(=O)Nc1cccc(F)c1CCC1CNC2CCCS(=O)(=O)N1C2)[C@H](c1ccc(F)cc1)C1CCC(F)(F)CC1` (stereo partly drawn) [Example 62, methyl [(1S,2S)-2-(4,4-difluorocyclohexyl)-1-({2-[2-(2,2-dioxido-2-thia-1,7-diazabicyclo[4.3.1]dec-9-yl)ethyl]-3-fluorophenyl}carbamoyl)-2-(4-fluorophenyl)ethyl]carbamate], 190 nM.
